ChEMBL document CHEMBL1145125, “Simple, intuitive calculations of free energy of binding for protein-ligand complexes. 2. Computational titration and pH effects in molecular models of neuraminidase-inhibitor complexes” (J Med Chem, 2003)

Experiment: In vitro inhibitory activity against neuraminidase
Design: species or system unidentified influenza virus

With CC(=O)Nc1c(N)cc(C(=O)O)cc1O the IC50 was over 10 µM.
Work on CC(=O)Nc1ccc(C(=O)O)cc1N yielded an IC50 of over 10 µM.
For CC(=O)N[C@H]1[C@H]([C@H](O)[C@H](O)CN)OC(C(=O)O)=C[C@@H]1O, the Ki was 400 µM.
CC(=O)N[C@H]1[C@H]([C@H](O)[C@H](O)CN)OC(C(=O)O)=C[C@@H]1N gave a Ki of 15 µM.
For CC(=O)Nc1c(O)cc(C(=O)O)cc1[N+](=O)[O-], the IC50 was 750 µM.
In the case of CC(=O)N[C@H]1[C@H]([C@H](O)[C@H](O)CO)OC(C(=O)O)=C[C@@H]1N, the Ki is reported as 0.04 µM.
In the case of CCCN(CCc1ccccc1)C(=O)[C@@H]1OC(C(=O)O)=C[C@H](N)[C@H]1NC(C)=O, the IC50 is reported as 3.6 µM.
Compound CC(=O)N[C@H]1[C@H]([C@H](O)[C@H](O)CO)OC(C(=O)O)=C[C@@H]1O [NEU5AC2EN] has a Ki of 4 µM.
